Source: US20260049078A1, “DIFLUORO- AND TRIFLUORO-ACETYL HYDRAZIDES AS SELECTIVE HDAC6 INHIBITORS” (ITALFARMACO S.P.A., priority 2022, published 2026)
Read-outs that look alike come from different tables or passages of the source.

Assays:
recombinant human HDAC6 = recombinant human HDAC6 (Homo sapiens (Human), UniProt Q9UBN7); experiment: Enzyme inhibitory activity assay on HDAC6; format: biochemical; conditions: 30 minutes preincubation at 25° C.
Protocol: For each test compound, 100× concentrated DMSO solutions at 8 doses were prepared and then diluted in assay buffer (25 mM Tris-HCl, pH 8, 130 mM NaCl, 0.05% Tween-20, 10% Glycerol) to obtain 5× concentrated solutions in relation to the final concentrations (typical final concentration range—6.4-200000 nM or 0.18-50000 nM, final DMSO content—1%). Then 10 μL solution of each test compound concentration were placed on a 96-well plate in triplicate and 15 μL of 3.33× concentrated enzyme solution in the assay buffer containing 3.33× concentrated BSA (final BSA concentration 1 mg/mL) and, in case of HDAC6, 3.33× concentrated TCEP (final TCEP concentration—200 μM) were added to each well. After a period of preincubation at 25° C. (30 minutes for HDAC6 and 120 minutes for HDAC1), 25 μL of solution containing the substrate were added. As substrate, FLUOR DE LYS® deacetylase substrate (Enzo Life Sciences, cat: BML-KI104, FdL), FLUOR DE LYS®-Green substrate (Enzo Life Sciences, cat: BML-KI572, FdL_G) or Boc-Lys(Tfa)-AMC (Bachem, cat: 4060676.005, Tfal)—2× concentrated solution in assay buffer were used. Following a reaction period (30 minutes at 25° C.), 50 μL of the development solution consisting of concentrate FLUOR DE LYS® developer I (Enzo Life Sciences, ca: BML-KI105), diluted 200 times in buffer (50 mM Tris-HCl, pH 8, 137 mM NaCl, 2.7 mM KCl, 1 mM MgCl2) plus 2 μM TSA was added and, after 25 minutes at room temperature in the dark, using the Victor 1420 Multilabel Counter Perkin Elmer Wallac instrument, the fluorescence reading was carried out (excitation/emission: 485/535 nM—Fluor de Lys Green, 355/460 nM—Tfal, Fluor de Lys).
Enzymatic activity on recombinant human HDAC6 and HDAC1 was evaluated (Table 2) for each synthesized compound.

[1] = system: human B cell precursor leukemia 697; experiment: In vitro α-tubulin acetylation in 697 cell line; format: cell-based; conditions: read-out: TubAc 697 cells EC50
Protocol: The in vitro α-tubulin acetylation was evaluated on human B cell precursor leukemia 697.
The 697 cells were maintained in RPMI Medium 1640 (Gibco, cat: 21875-034) supplemented with 10 mM HEPES (Gibco, cat: 15630-080), Pen-Strep (Penicillin 100 U/ml, Streptomycin 100 μg/ml, Gibco, cat: 15140-122) and 10% fetal bovine serum (Gibco, cat: 10270-106).
The cells were plated in 12-well plates (Costar, cat: 3512) at the density of 5.5×10^5 cells/ml.
Serial dilutions of test compounds in DMSO were prepared using 20 mM stock solutions to obtain 8 doses 200× concentrated in respect to final doses (2.7-100000 nM). Then the DMSO solutions were diluted 10× in culture medium to obtain 20× concentrated solutions which were used for cells treatment (125 μl of medium solutions were added to 2.375 ml of cells suspension). The final DMSO content was set as 0.5%. The plates were incubated at 37° C., 5% CO2 for 16 hours.
At the end of the incubation period, the cells were harvested and centrifuged for 5 minutes at 200×g and washed with 0.9% NaCl at 4° C. The resulting pellet was treated for 30 minutes at 4° C. with 100 μl Complete Lysis-M buffer containing protease inhibitors (Complete Lysis-M Roche+Complete Tablets, Mini Easypack, cat: 4719956001) and phosphatase inhibitor cocktails (PhosStop Easypack, Roche, cat: 4906837001) and then centrifuged 10 minutes at 18213×g. The protein concentration in each supernatant was determined using BCA Protein Assay Kit (Pierce, cat: 23227). The samples were diluted in PBS 1× to obtain 2 μg/ml concentration and coated in MaxiSorp 96-well plates (Nunc, cat: 442404). The plates were incubated overnight at room temperature.
Plates were washed twice with Wash Buffer (PBS 1×+0.005% tween 20) and saturated for 1 hour at room temperature with 300 μL of 1×PBS containing 10% FBS. After washing twice with Wash Buffer, the plates were incubated for 2 hours at room temperature in the presence of 100 μl/well either anti-acetylated-α-tubulin antibody (Monoclonal Anti-Tubulin, Acetylated antibody produced in mouse, Sigma-Aldrich, cat: T6793) or total anti-α-tubulin antibody (Monoclonal Anti-α-Tubulin produced in mouse, Sigma-Aldrich, cat: T6074) diluted 1:1000 in 1×PBS containing 10% FBS. Following 5 washing cycles with Wash Buffer the secondary antibody conjugated with the enzyme HRP (Goat anti-Mouse IgG, IgM, IgA (H+L), stock concentration 0.5 mg/ml, Thermo Fisher Scientific, cat: A10668), diluted 1:1000 in 1×PBS+10% FBS was added at the volume of 100 μl/well. After two hours of incubation at room temperature the plates were washed 4 times with Wash Buffer, then 100 μl/well of TMB substrate (TMB substrate kit, Thermo Fisher Scientific, cat: 34021) was added for 10 minutes at room temperature in the dark. The reaction was stopped by adding 50 μl of 2M H2SO4. The plates were read in BioTek Synergy H1 multimode microplate reader at a wavelength of 450 nm.
The measured absorbance was corrected by subtracting the mean of blank values (samples without the primary antibody). The absorbance ratios of acetyl to total tubulin assays were calculated and normalized to the reference compound (positive control) 4 parameter logistic curve, where 0% is the fitted bottom and 100% is the fitted top of the curve. The results are expressed as relative EC50.

Chain of recombinant human HDAC6 (Q9UBN7 whole entry): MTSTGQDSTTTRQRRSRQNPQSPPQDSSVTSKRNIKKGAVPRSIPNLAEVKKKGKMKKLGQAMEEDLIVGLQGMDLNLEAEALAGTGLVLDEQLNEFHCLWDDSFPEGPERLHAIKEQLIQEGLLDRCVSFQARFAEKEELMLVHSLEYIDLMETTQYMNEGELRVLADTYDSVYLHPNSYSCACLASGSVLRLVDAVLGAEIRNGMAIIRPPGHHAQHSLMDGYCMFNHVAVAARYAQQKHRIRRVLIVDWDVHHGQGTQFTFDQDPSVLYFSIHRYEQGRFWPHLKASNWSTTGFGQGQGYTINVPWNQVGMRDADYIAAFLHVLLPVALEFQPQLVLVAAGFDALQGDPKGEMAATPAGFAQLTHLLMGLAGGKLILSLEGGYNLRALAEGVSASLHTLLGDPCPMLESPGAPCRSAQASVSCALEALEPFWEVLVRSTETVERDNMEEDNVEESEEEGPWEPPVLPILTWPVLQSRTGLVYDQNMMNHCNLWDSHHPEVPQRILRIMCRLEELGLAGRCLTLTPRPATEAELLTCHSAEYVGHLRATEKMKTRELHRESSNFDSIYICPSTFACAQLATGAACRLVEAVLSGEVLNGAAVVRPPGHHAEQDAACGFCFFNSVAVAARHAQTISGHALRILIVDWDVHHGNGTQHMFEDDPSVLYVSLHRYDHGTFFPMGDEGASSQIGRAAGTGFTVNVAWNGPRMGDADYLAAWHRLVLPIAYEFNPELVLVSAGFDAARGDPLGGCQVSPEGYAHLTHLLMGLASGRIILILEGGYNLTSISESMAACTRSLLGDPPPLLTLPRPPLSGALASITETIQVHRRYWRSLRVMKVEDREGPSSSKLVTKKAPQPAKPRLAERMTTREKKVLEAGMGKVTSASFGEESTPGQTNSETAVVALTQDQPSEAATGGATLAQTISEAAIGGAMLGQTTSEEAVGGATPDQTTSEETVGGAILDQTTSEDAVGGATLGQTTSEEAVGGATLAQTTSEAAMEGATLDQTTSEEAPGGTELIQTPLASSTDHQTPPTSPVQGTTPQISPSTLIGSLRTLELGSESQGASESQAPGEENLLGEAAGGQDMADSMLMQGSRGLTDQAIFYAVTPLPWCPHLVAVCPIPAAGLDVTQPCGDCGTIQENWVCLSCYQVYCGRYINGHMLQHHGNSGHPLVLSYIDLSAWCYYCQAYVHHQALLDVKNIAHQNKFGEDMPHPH

| Compound | IC50 (recombinant human HDAC6) [nM] | EC50 ([1]; Homo sapiens, B-cell, 16 h) [nM] | EC50 ([1]; 697 cells, 16 hours, relative EC50) [nM] |
| --- | --- | --- | --- |
| Nc1nc2ccc(-c3cn(Cc4ccc(-c5nnc(C(F)F)o5)cc4Cl)nn3)cc2s1 [Compound 37-A] | 61 | 65 |  |
| Fc1ccccc1-c1cn(Cc2ccc(-c3nnc(C(F)F)o3)cn2)nn1 [Compound 14-A] | 22 | 476 |  |
| Nc1nc2ccc(-c3cn(Cc4ccc(-c5nnc(C(F)F)o5)cc4F)nn3)cc2s1 [Compound 2-A] |  | 130 |  |
| Nc1nc2ccc(-c3cn(Cc4ccc(-c5nnc(C(F)F)o5)cn4)nn3)cc2s1 [Compound 38-A] | 8 | 76 |  |
| FC(F)c1nnc(-c2ccc(Cn3cc(-c4ccccc4)nn3)nc2)o1 [Compound 13-A] | 32 | 505 |  |
| FC(F)c1nnc(-c2ccc(Cn3cc(-c4ccc(NC5=NCCN5)cc4)nn3)cc2)o1 [Compound 1-A] | 14 | 585 |  |
| FC(F)c1nnc(-c2ccc(Cn3cc(-c4ccccn4)nn3)nc2)o1 [Compound 20-A] | 60 | 1210 |  |
| Nc1nc2ccc(-c3cn(Cc4ccc(-c5nnc(C(F)F)o5)cc4)nn3)cc2s1 [Compound 32-A] | 26 | 85 |  |
| Nc1nc2ccc(C3CN(Cc4ccc(C(=O)NNC(=O)C(F)F)s4)N=N3)cc2s1 (centres unmarked) [Compound 48-A] | 7 |  | 7.5 |
